Data published in patent publication EP0139358B1, “N6-substituted diarylalkyl adenosines, processes for their production and pharmaceutical compositions comprising the same” (priority 1983, dated 1985).
Where two headings read alike, the source gives them in different places.

Experiments:
[1] = system: Swiss-Webster male mice; test: Mouse Activity and Screen Test (MAST): inhibition of spontaneous locomotion (LI); assay type: in vivo; conditions: Mus musculus, ip; read-out: MAST LI LAD
Protocol: (§1) Treatments are administered intraperitoneally one hour prior to testing. […] Compounds are dissolved or suspended in 0.2% Methocel. Control animals are injected with Methocel.
Immediately following the screen test, the final phase of testing is initiated by placing each group of three mice in one actophotometer (Life Sciences, 22, 1067-1076, 1978). The actophotometer consists of a cylindrical chamber whose center is occupied by another cylinder which contains the illumination for six photocells located on the perimeter of the chamber. Six light-beam interruptions equal one count. Locomotor activity is recorded by computer at ten minute intervals for 60 minutes. […]

[2] = system: Swiss-Webster male mice; test: Mouse Activity and Screen Test (MAST): screen test (ST); assay type: in vivo; conditions: lowest dose at which an A rating (60-100%) is achieved, screen test; intraperitoneally
Protocol: as §1
The compounds are identified in the Examples.

[3] = system: Long-Evans rats or squirrel-monkeys; test: Antipsychotic lever-push shock avoidance protocol (SIDR); assay type: in vivo; conditions: Rattus norvegicus; shock avoidance lever pushing; read-out: SIDR ED50
Protocol: Representative compounds of the invention (identified in the Examples) were also tested for antipsychotic activity according to the following protocol (SIDR). […] Mature male Long-Evans rats or squirrel-monkeys are conditioned to push a lever in order to avoid a painful electric footshock. If the animal fails to push the lever, he receives a shock every ten seconds until the lever is pushed. Shocks can be terminated by pushing the lever. Thereafter, as long as the lever is pushed at least once every 20 seconds, there will be no shock. Each animal acts as its own control; one weekly session is used to establish baseline behavior and another session later in the week is used as a drug session. Once patterns of avoidance are established, the effects of standard and unknown compounds are studied. All events are electronically programmed and the response to these events counted or used as feedback to the program.

[4] = system: conscious rat; test: Antihypertensive evaluation (AHP3): aortic blood pressure and heart rate; assay type: in vivo; conditions: lowest dose tested at which a >10% reduction in blood pressure for four consecutive hours is achieved; conscious rat; read-out: AHP3 BP LAD
From the text: […] EVALUATION (AHP3)
This test procedure is described in the following paragraphs.
A Method for the Direct Monitoring of Aortic Blood Pressure and Heart Rate from Conscious Rats
The continuous monitoring of pulsatile blood pressure (BP) from unrestrained conscious rats surgically equipped with polyethylene cannulas was accomplished by means of a computer assisted data capture scheme (CADCS). The absic elements of the methodology are the cannulation procedure and the CADCS.
Cannulation Procedure: Rats were anesthetized with Telazol (1:1 tiletamine HCI and zolazepam HCI); 20-40 mg/kg IM and the descending aorta exposed via a midline incision. Cannulas fabricated from polyethylene tubing were inserted into the aorta via an undersized puncture hole below the renal arteries. The puncture hole was made by a 23 G disposable needle with a section of the aorta clamped off above and below the puncture site. The cannulas, consisting of a PE100 (0.86 mm ID) body and a PE50 (0.58 mm ID) tip, were attached to a trocar, inserted through the psoas muscle, and passed subcutaneously along the midline of the back and externalized between the ears. The cannulas were anchored to the psoas muscle and between the scalulae (3-0 green braided suture). The midline incision was closed in two steps (muscle first, skin second) using continuous over-and over sutures (4-0 chronic). Each rat was then given penicillin 30,000 units subcutaneously (Penicillin G Procaine Sterile Suspension).
The rats were fitted with a harness-spring-swivel assembly designed to protect the cannula and to provide the rat relative freedom of movement. The harnesses were fabricated from nylon hook and loop tape cemented to a metal plate to which spring wires (18-8 stainless steel), were attached to brass swivels. Each polyethylene cannula was channeled through a spring and connected through a swivel to a pressure transducer (Model P23Gb; Statham Instruments; Hato Rey, Puerto Rico) and an infusion pump (Sage model 234-7; Orion Research, Cambridge, Ma) by means of PE100 tubing. While on test, each rat received a continuous slow infusion of heparinized saline solution (approximately 400 I or 40 units of heparin per 24 hour period) to prevent clot formation. Additional "flushes" of the cannula with heparinized saline were carried out when the aortic pulse pressure (systolic minus diastolic) was less than 25 mm Hg.
CADCS: The pulsatile blood pressure and heart rate of each of 32 rats was monitored every minute by means of two in-laboratory microcomputers communicating directly with a data concentrator computer. The data were first stored on the data concentrator disk and then transferred to a magnetic tape for analysis and report generation by the main research computer. The overall scheme involved modulating the primary signal from the pressure transducer, generating the primary data set of the one-minute values for systolic, diastolic, and mean blood pressures and heart rate by the in-lab microcomputer and the storage, analysis, and report generation by the main research computer.
The transducers were connected to analog signal conditioning modules. The modules providing a regulated excitation voltage for the transducers, amplification as required to interface the microprocessors and an active low pass filter to compensate for the pressure wave form distortion produced by the flexible, fluid filled, narrow cannula.
The microcomputers (one for each of two groups of 16 rats) were connected to the input components through the module interface units, an analog-to-digital converter for the pressure wave form signal and the digital inputs for the dose and event marker switches. The microcomputer controlled the sequential acquisition of data from the modular interface units through an internal synchronous time-of-day clock/ time base generator. […]

[5] = system: rat heart; test: Coronary blood flow (PCS2A): isolated perfused heart; conditions: isolated perfused rat heart
Protocol: CORONARY BLOOD FLOW (PCS2A)
Male rats (400-600 gms) are pretreated with Na haparin 2000 units and anesthetized with Na pentobarbital (50 mg/kg) administered intraperitoneally. Once anesthetized, the rat heart is rapidly excised, the ascending aorta fitted to the aortic perfusion cannula, and […] with a ligature. The coronary arteries are perfused initially at a rate of about 15 ml/min for two to three minutes, afterwhich they are perfused at constant pressure of 70 mm Hg and temperature of 37°C. The electrocardiogram (ECG) is recorded using two platinum electrodes positioned at the base and apex of the left ventricle. A second heart is excised, cannulated, and perfused by the same method outlined above. Both hearts are tested in parallel. The standard physiological salt solution (PSS) is a modified Krebs-Hanseleit bicarbonate buffer of the following composition in mM concentration: NaCI, 127; NaHC03, 25; dextrose, 5.5; Na Pyruvate, 2.0: KCI, 4.7; MgS04, 1.1; KH 2P04, 1.2; CaCl2·2H2O, 2.5; CaNa2 EDTA, 0.05.
A 30-minute stabilization period is observed before starting the test protocol.
The microprocessor control system is a servo mechanism which permits coronary perfusion pressure (CPP) and drug concentration to be maintained constant independent of changes in coronary flow. The level at which CPP and drug concentration are maintained can be changed by commands communicated through the microprocessor keyboard. Dose-response curves are carried out by perfusing concentrated drug solution (DC) at rates proportional to total coronary flow (CFT). Drug concentrations are increased by proportionate increases in the rate of DC infusion over CFT via the microprocessor keyboard. The proportional flow rates for DC:CFT is about .0002:1 at the low end and .02: at the high end of the dose-response curve. Dose-response curves encompassing at least two log doses are carried out by preparing two DCs with a concentration difference of 1:100. Following the first dose range of two log doses, the DC are switched, proportional pumping rate adjusted, and the dose-response curve continued for another two log doses. The standard dose-response curve is carried out in one-half log dose increments starting at a subthreshold dose and ending at a dose which produces near maximal response in activity. Standard reference compounds are tested over the range of 10-^9 to 10-^6M.
Measurements are for heart rate (HR) and coronary flow (CF). Units are: HR, beats/minute (bpm) and CF, milliliters/minute (ml/min). HR is calculated from the ECG strip chart recording and CF is calculated by recording analog outputs from pumps 1 and 2. Outputs from pump #1 = CFT and the output from pump #2 = CF for heart B (CFg). CF for heart A (CFA) is calculated (CFT - CFB = CFA).
Using the above technique, the effects of the compound of Examples 1 and 2 are as follows: […]

[6] = system: male Swiss-Webster mice; test: Analgesic evaluation: antiwrithing (AW) test, acetic acid; assay type: in vivo; conditions: Mus musculus, sc; subcutaneously, 20 minutes before acetic acid; dose to suppress writhing by 50%; read-out: AW ED50
Protocol: The antiwrithing (AW) test provides preliminary assessment of compounds with potential analgesic activity. The test is performed in male Swiss-Webster mice. Compounds are administered subcutaneously in aqueous 0.2% methylcellulose or other appropriate vehicles in volumes of 10 ml/kg. Dosages represent activity moiety.
Acetic acid (0.6%, 10 ml/kg) is injected intraperitroneally 20 minutes after administration of the adenosine agonist. Writhing movements are counted for five minutes starting seven minutes after the acetic acid injection. Writhing is defined as abdominal constriction and stretching of the body and hind legs with concave arching of the back. […] EDso values are calculated by nonlinear regression analysis.

[7] = coronary flow, read-out: PCS2A CF ED50
[8] = heart rate, read-out: PCS2A HR ED50

| MAST ST LAD [2] [mg/kg] | EC50 [5, 7] [µM] | Compound | minimal effective dose [1] [mg/kg] | ED50 [3] [mg/kg] | minimal effective dose [4] [mg/kg] | EC50 [5, 8] [µM] | ED50 [6] [mg/kg] |
| --- | --- | --- | --- | --- | --- | --- | --- |
| >100 | < 0.1 | CC(CNc1ncnc2c1ncn2[C@@H]1O[C@H](CO)[C@@H](O)[C@H]1O)(c1ccccc1)c1ccccc1 [Example 8, N^6-(2,2-Diphenylpropyl)adenosine] | 10 | 5.6 | 10 | 3 | 10.6 |
| >100 | 0.03 | OC[C@H]1O[C@@H](n2cnc3c(NCC(c4ccccc4)c4ccc(Cl)cc4)ncnc32)[C@H](O)[C@@H]1O (stereo partly shown) [Example 15, N^6-(2-(4-Chlorophenyl)-2-phenylethyl)adenosine] | 10 | 12.7 | 10 | > 3 |  |
| >100 | 1 | CC(=O)OC[C@H]1O[C@@H](n2cnc3c(NCC(c4ccccc4)c4ccccc4)ncnc32)[C@H](OC(C)=O)[C@@H]1OC(C)=O [Example 25, 2',3',5'-Tri-O-acetyl-N^6-(2,2-diphenylethyl)adenosine] | 3 | 11.3 | 10 | 2.2 |  |
